According to US6355634B1, “Aromatic compounds” (Bayer Aktiengesellschaft, priority 1990, dated 2002):

Experiments:
Type in all cases: in vivo
Erysiphe graminis = Erysiphe graminis (protective action) on wheat seedlings; conditions: Blumeria graminis, 168 h, 160 ppm spray, wheat cv. Lita, evaluated 7 days after infection, read-out: action (leaf area covered in Erysiphe graminis as a percentage compared with the infected control)
Method: Erysiphe graminis (Protective Action)
30-40 wheat seedlings cv. “Lita” in the 1-leaf stage (distributed to two pots of ø7 cm) are sprayed thoroughly with a spray mixture prepared with a wettable powder of the active substance (with 160 ppm of active ingredient) and then cultured further in the greenhouse. One day after the treatment, the plants are dusted with conidia of Erysiphe graminis. The test is evaluated 7 days after the infection by determining the size of the leaf area covered in Erysiphe graminis as a percentage compared with the infected control.
Untreated, but infected control plants show a level of infection with Erysiphe of 100%.

Alternaria brassicae = Alternaria brassicae (protective action) on cabbage seedlings; conditions: 50 ppm spray, cabbage cv. Vorbote, evaluated 2-5 days after infection, read-out: action (leaf area infected with Alternaria brassicae as a percentage compared with the infected, untreated control)
Method: Alternaria brassicae (Protective Action)
4 cabbage seedlings, cv. “Vorbote”, in the 6-leaf stage, distributed to 2 pots, are sprayed thoroughly with a spray mixture prepared with a wettable powder of the active substance (with 50 ppm of active ingredient) and subsequently cultured further in a controlled-environment cabinet at 19° C. and with 16 hours illumination per day. Two days after the treatment, the plants are infected by spraying with an aqueous conidia suspension (approx. 30,000 conidia/ml). The cabbage plants are then incubated at 24-26° C., under dew-point conditions and with a photoperiod of 16 hours. The test is evaluated 2-5 days after the infection by determining the leaf area infected with Alternaria brassicae as a percentage compared with the infected, untreated control.

Venturia inaequalis = Venturia inaequalis (curative action) on apple seedlings; conditions: 50 ppm spray, apple cv. Golden Delicious, evaluated 9-10 days after treatment, read-out: action (leaf area covered in Venturia inaequalis as a percentage compared with the infected control)
Method: Venturia inaequalis (Curative Action)
Two apple seedlings cv. “Golden Delicious” are sprayed with a conidia suspension of Venturia inaequalis and subsequently incubated at 18° C. and under dew-point conditions. After 24 hours, the plants are sprayed thoroughly from all sides with a spray mixture prepared with a wettable powder of the active substance (with 50 ppm of active ingredient). The treated apple seedlings are subsequently cultured further in the greenhouse. 9-10 days after the treatment, the test is evaluated by determining the leaf area covered in Venturia inaequalis as a percentage compared with the infected control.

Cercospora arachidicola = assay: Action against Cercospora arachidicola on peanut plants (curative action); conditions: Mycosphaerella arachidis, 288 h, 160 ppm spray, peanut cv. Tamnut, evaluated 12 days after treatment, read-out: action (leaf area infected with Cercospora arachidicola as a percentage compared with the infected control)
Method: Action Against Cercospora arachidicola on Peanut Plants (Curative Action)
Two peanut plants cv. “Tamnut” in the 4-leaf stage are sprayed with a conidia suspension of Cercospora arachidicola (approx. 200,000 conidia/ml) and subsequently incubated at 25-26° C. and under dew-point conditions. After two days, the plants are sprayed thoroughly from all sides with a spray mixture prepared with a wettable powder of the active substance (with 160 ppm of active ingredient). The treated plants are subsequently incubated in a controlled-environment cabinet under the following conditions: 25-27° C. and 80% atmospheric humidity during the day, 20° C. and dew-point conditions during the night; the photoperiod in each case is 16 hours. 12 days after the treatment, the test is evaluated by determining the leaf area infected with Cercospora arachidicola as a percentage compared with the infected control.

Structure (SMILES) | pest or weed control at 50 ppm (Alternaria brassicae) [%] | pest or weed control at 50 ppm (Venturia inaequalis) [%] | pest or weed control at 160 ppm (Cercospora arachidicola) [%] | other results
CO/N=C(\C(=O)OC)c1ccccc1CON=C(c1ccccc1)C(F)(F)F [Compound 27] | – | – | – | pest or weed control at 160 ppm (Erysiphe graminis): > 75%
CO/N=C(\C(=O)OC)c1ccccc1CON=C(C)C(C)Oc1ccccc1 (stereo not drawn) [Compound 37] | – | – | – | pest or weed control at 160 ppm (Erysiphe graminis): > 75%
CO/N=C(\C(=O)OC)c1ccccc1CON=C(C)c1ccc2cc(OC)ccc2c1 [Compound 119] | – | – | – | pest or weed control at 160 ppm (Erysiphe graminis): > 75%
CO/N=C(\C(=O)OC)c1ccccc1CON=C(c1ccc2ccccc2c1)C(F)(F)F [Compound 143] | > 75 | – | – | –
C=CCOc1cccc(C(C)=NOCc2ccccc2/C(=N/OC)C(=O)OC)c1 [Compound 66] | – | > 75 | > 75 | –
CO/N=C(\C(=O)OC)c1ccccc1CON=C(C)c1ccc(OC(F)(F)C(F)(F)F)cc1 [Compound 106] | – | > 75 | – | –
CO/N=C(\C(=O)OC)c1ccccc1CON=C(C)c1cc(OC)c(OC)c(OC)c1 [Compound 20] | > 75 | > 75 | – | –
CO/N=C(\C(=O)OC)c1ccccc1CON=C(C)c1cccc(SC#N)c1 [Compound 71] | – | – | > 75 | –
CO/N=C(\C(=O)OC)c1ccccc1CON=C(C)c1cccc([N+](=O)[O-])c1 [Compound 26] | > 75 | – | > 75 | –
CO/N=C(\C(=O)OC)c1ccccc1CON=C(c1ccc(F)cc1)C1CC1 [Compound 89] | – | – | – | pest or weed control at 160 ppm (Erysiphe graminis): > 75%
CO/N=C(\C(=O)OC)c1ccccc1CON=C(c1cccc(Cl)c1)C1CC1 [Compound 145] | – | – | > 75 | –
CO/N=C(\C(=O)OC)c1ccccc1CON=C(C)c1cccs1 [Compound 14] | > 75 | > 75 | > 75 | –
CO/N=C(\C(=O)OC)c1ccccc1CON=C(C)C(=O)c1ccc2c(c1)OCO2 [Compound 64] | – | > 75 | – | –
CO/N=C(\C(=O)OC)c1ccccc1CON=C(C)c1cc(C)ccc1F [Compound 137] | – | – | – | pest or weed control at 160 ppm (Erysiphe graminis): > 75%
CO/N=C(\C(=O)OC)c1ccccc1CON=C(c1cccc(Cl)c1)C(F)(F)F [Compound 141] | – | – | – | pest or weed control at 160 ppm (Erysiphe graminis): > 75%
CCOc1cc(C(C)=NOCc2ccccc2/C(=N/OC)C(=O)OC)ccc1OC [Compound 85] | – | > 75 | – | –
CO/N=C(\C(=O)OC)c1ccccc1CON=C(C)c1ccc(OC)cc1 [Compound 19] | – | > 75 | > 75 | –
CO/N=C(\C(=O)OC)c1ccccc1CON=C(SC)c1ccccc1 [Compound 124] | > 75 | > 75 | – | –
CO/N=C(\C(=O)OC)c1ccccc1CON=C(C)c1cccc(OCC2CC2)c1 [Compound 68] | – | – | > 75 | –
CO/N=C(\C(=O)OC)c1ccccc1CON=C(C)Cc1ccc2c(c1)OCO2 [Compound 54] | > 75 | > 75 | – | –
CO/N=C(\C(=O)OC)c1ccccc1CON=C(C)c1ccccc1 [Compound 134] | – | > 75 | – | –
CO/N=C(\C(=O)OC)c1ccccc1CON=C(C)c1ccc(OC)c(CSC)c1 [Compound 49] | – | > 75 | > 75 | –
CO/N=C(\C(=O)OC)c1ccccc1CON=C(C)C(=O)c1cccc([N+](=O)[O-])c1 [Compound 130] | > 75 | – | > 75 | –
CO/N=C(\C(=O)OC)c1ccccc1CON=C(c1ccc(Cl)cc1)C(F)(F)F [Compound 142] | – | > 75 | – | –
COCc1cc(C(C)=NOCc2ccccc2/C(=N/OC)C(=O)OC)ccc1OC [Compound 83] | – | > 75 | > 75 | –
CO/N=C(\C(=O)OC)c1ccccc1CON=C(C)c1cc(Cl)cc(Cl)c1 [Compound 136] | > 75 | – | – | –
C#CCOc1cccc(C(C)=NOCc2ccccc2/C(=N/OC)C(=O)OC)c1 [Compound 67] | > 75 | – | – | –
CO/N=C(\C(=O)OC)c1ccccc1CON=C(C)c1cccc(OCC#N)c1 [Compound 92] | > 75 | – | – | –
